From patent US20090105149A1, “Compounds comprising lpa” (ENKAM PHARMACEUTICALS A/S, priority 2003, published 2009)
Marks after values point to notes of the source that are not given here.

Tests used:
hippocampal neurons [1] = test: Neurite outgrowth, hippocampal neurons; type: cell-based, rat; settings: at 0.3 μg/ml
Experimental: (§1) The cultures were subsequently immunostained for tyrosine hydroxylase. Hippocampal neurons and CGN were plated at a density of 10,000 cells/cm^2 on 8-well permanox chamber slides and incubated for 24 hours in the presence of various concentrations of FGLd. Subsequently the neurons were immunostained for GAP-43. Results from at least five independent experiments for each neuronal culture are shown as percentage ±SEM with the untreated controls set at 100%. *p<0.05, **p<0.01, ***p<0.001 when compared to the controls.
Results from at least four independent experiments are shown as percentage SEM with untreated controls set at 100%. **p<0.01 when compared to the controls.
(§2) Peptide solutions without or with inhibitors of various signal transduction pathways were added to a total volume of 300 μl/cm^2, and the slides were incubated at 37° C. After 24 hours, the neurons were fixed with 4% (v/v) formaldehyde for 20 minutes and thereafter immunostained using primary rabbit antibodies against GAP-43 and Alexa Fluor secondary goat anti-rabbit antibodies. Images of at least 200 neurons for each group in each individual experiment were obtained systematically by using computer assisted fluorescence microscopy as previously described (Rønn et al., 2000 op. cit.). Briefly, a Nikon Diaphot inverted microscope with a Nikon Plan 20× objective (Nikon, Tokyo, Japan) coupled to a video camera (Grundig Electronics, Germany) was used for recordings. The same software package as described above for the dopaminergic neurite outgrowth assay was used to process the recorded images.

[2] = test system: FGL-induced neurite outgrowth in CGN cultures; test: Effect of inhibitors of FGFR, MEK and PI3K on FGL-induced neurite outgrowth in CGN; type: cell-based, rat; settings: Rattus norvegicus, 27 μg/ml FGLd, FGLd-treated control = 100%, read-out: FGLd-induced neurite outgrowth in CGN in presence of inhibitor
Experimental: CGN cultures were grown for 24 hours at a density of 10,000 cells/cm^2 on 8-well permanox slides in the presence of the FGL peptide and an inhibitor. PD98059 ([…]) was added at concentrations of 12.5, 25 and 50 μM simultaneously with 10 μg/ml FGLd; LY294002 (▴) was added at concentrations of 3.5, 7 and 10 μM simultaneously with 27 μg/ml FGLd. SU5402 (▪) was added in concentrations of 20, 40 and 80 μM simultaneously with 27 μg/ml FGLd. After the treatment cells were fixed and immunostained for GAP-43. Results from at least four independent experiments are shown as percentage ±SEM, with FGLd-treated control cultures set at 100%. The dashed line indicates the average neurite length in cultures without FGLd-treatment. *p<0.05, **p<0.01 when compared to the FGLd-treated controls.
as §2

[3] = test system: organotypic hippocampal neuronal slice cultures (OHSC); test: OGD, propidium iodide staining of OHSC; type: cell-based, rat; settings: control peptide
From the text: In the present study it was investigated the effect of the FGL peptide on synaptic plasticity, neuronal function and vulnerability following oxygen and glucose deprivation (OGD) in organotypic hippocampal neuronal slice cultures (OHSC) from 7-day-old Wistar rats according to method of Stoppini et al. (1991) Neurosci Methods. 37:173-82 and primary cultures of dissociated hippocampal neurons from 1-day-old rats according to method of Maar et al. (1997) J Neurosci Res. 47:163-72. Primary cell cultures were maintained for 11-12 days and OHSC for 12-14 days prior to adding FGLd.
The primary cell cultures and OHSC were exposed to OGD for 10 and 20 minutes. Following OGD, the cultures were again supplied with oxygen and glucose and analysed at 1, 4 or 24 hour time point after introduction of OGD exposure. FGLd (or the control peptide FGLc) was added 24 hr before, immediately, or 1 hr or 24 hr after OGD. When administered prior to OGD, FGLd was removed from the medium when introducing OGD. In some cases, the slice cultures were treated with FGLd only at 4 hr after OGD. In addition, the FGFR inhibitor, SU5402 (25 μM), was added together with FGLd in some of the set-ups.
In hippocampal neuronal cultures, FM 1-43 staining was used to evaluate pre-synaptic function (described above). Cell viability in both primary cell cultures and OHSC was measured using the […] [3-(4,5-dimethylthiazol-2-yl)-2,5-diphenyltetrazolium bromide] assay according to Malich et al, (1997) Toxicology. 124:179-92. In, addition, cell viability in OHSC was measured using propidium iodide (PI) staining according to Laake et al. (1999) Brain Res Brain Res Protoc. 4:173-84.

dopaminergic neurons [4] = test: Neurite outgrowth, dopaminergic neurons; type: cell-based, rat; settings: DN E14, 72 h
Experimental: as §1
After 72 hours of incubation, the neurons were fixed with 4% (v/v) formaldehyde and immunostained using a primary mouse monoclonal antibody against tyrosine hydroxylase and secondary biotinylated sheep anti-mouse antibodies followed by incubation with peroxidase conjugated streptavidin. 98 images for each experimental condition in each individual experiment were automatically recorded using a computerised microscope workstation described by Walmod et al. (2002) Toxicol Appl Pharmacol. 181:1-15. Briefly, the workstation consisted of an Eclipse TE 300 inverted microscope (Nikon, Tokyo, Japan) equipped with a motorised, movable microscope stage (LUDL Electronic Production Ltd, Hawthorne, N.Y., USA), a 10× objective and a 1100 analogue b/w CCD video camera (DFA, Denmark). A software package Prima developed at the Protein Laboratory (Copenhagen University, Denmark) was used to make a stereologically based determination of neurite length according to Rønn et al., (2000) J Neurosci Methods. 100:25-32).

[5] = test system: cerebellar granule neurons (CGN); test: Survival of CGN induced to undergo apoptosis by low KCl; settings: for Neuronal Survival (% of Control): Low K+ (5 mM)
Experimental: Cerebella granular meurons (CGN) (e and f) from postnatal day 7 rats were grown at a density of 100,000 cells/cm^2 for 7 days on poly-L-lysine coated microtiter plates in the medium containing 40 mM KCl, then the medium was substituted to a 5 mM KCl containing medium supplemented with various concentrations of FGLd.
For the experiments cerebellar tissue was dissected in modified Krebs-Ringer solution kept on ice, and treated as described for the hippocampal neurons above. All cell cultures were incubated at 37° C. in a humidified atmosphere containing 5% CO2.
Primary cultures of CGN were plated at a density of 100,000 cells/cm^2 on poly-L-lysine coated 8-well permanox slides in Neurobasal-A medium (Gibco, BRL) supplemented with 2% (v/v) B27, 0.5% (v/v) glutamax, 100 U/ml penicillin, 100 μg/ml streptomycin and KCl, making the final concentration of KCl in the medium 40 mM. 24 hours after plating, cytosine-β-D-arabinofuranoside (Ara-C; Sigma-Aldrich) was added to a final concentration of 10 μM to avoid proliferation of glial cells, after which the neurons were allowed to differentiate for further six days at 37° C. Apoptotic cell death was induced by washing twice and changing the medium to Basal Medium Eagle (BME; Gibco BRL) supplemented with 1% (v/v) glutamine, 100 U/ml penicillin and 100 μg/ml streptomycin, 3.5 g D-glucose/l and 1% (v/v) sodium pyruvate (Gibco BRL) together with various concentrations of peptide. Thereby the concentration of potassium in the cultures was reduced to 5 mM KCl. Two days after induction of apoptosis, the cells were fixed with 4% formaldehyde and stained with Hoechst 33258 as described for the survival assay employing hippocampal neurons.

dopaminergic neurons [6] = test: Survival of dopaminergic neurons exposed to 6-OHDA; type: cell-based, rat; settings: 10 ng/ml; 6-OHDA-treated control cells set to 100%
Experimental: Dopaminergic neurons (DN) (a and b) from day 15 rat embryos grown at a density of 150,000 cells/cm^2 for six days without or with various concentrations of peptide on 24-well cell culture plates coated with poly-D-lysine were exposed to 100 μM 6-OHDA for two hours. Medium was changed and various concentrations of FGLd were added. The neurons were grown for another 24 hours before the cultures they were fixed and immunostained for tyrosine hydroxylase.
Dopaminergic neurons were prepared from Wistar rat embryos at embryonic day 15 (Charles River, Sulzfeld, Germany or Møllegaard, Denmark). A pregnant rat was sacrificed and the uterus was taken out and kept on ice in Hank's balanced salt solution (HBSS; Gibco, BRL). The ventral part of the mesencephalon was dissected from the embryonic brains, homogenised on ice in Gey's balanced salt solution (GBSS; Gibco, BRL) supplemented with 5 g glucose/l (Sigma-Aldrich) and thereafter trypsinised. The dissociated cells were washed in the presence of DNAse 1 and soybean trypsin inhibitor (Sigma-Aldrich).
For the survival assay isolated neurons were seeded at a density of 150,000 cells/cm^2 in 24-well cell culture plates coated with poly-D-lysine as described above. The neurons were left to differentiate for six days without or with various concentrations of the FGL peptide, after which 6-OHDA was added at a concentration of 100 μM for two hours. A stock solution was prepared by dissolving 6-OHDA to a concentration of 10 mM in 0.1% (w/v) sodium metabisulfite in order to prevent oxidation. After two hours with 6-OHDA, the medium was changed to Neurobasal medium with supplements and peptide, and the cell cultures were further incubated for 24 hours, fixed and immunostained for tyrosine hydroxylase. 98 images for each experimental condition in each individual experiment were automatically recorded as described for the dopaminergic neurite outgrowth assay below.

hippocampal neurons [7] = test: Survival of hippocampal neurons exposed to Aβ25-35; type: cell-based, rat; settings: 50 ng/ml; 20 μM Aβ25-35
Experimental: For the experiments dissociated hippocampal neurons were isolated from Wistar rat embryos at embryonic day 19 or newborn rats as described by Rønn et al. (1999) Nat. Biotechnol. 17:1000-5.
Briefly, hippocampus was isolated from the brain in ice cold modified Krebs Ringer solution, cleared of blood vessels, roughly homogenised by chopping and then trypsinised. The dissociated cells were washed in the presence of DNAse 1 and soybean trypsin inhibitor.
For the assay neurons were plated at a density of 40,000 cells/cm^2 on 8-well permanox slides coated with 10 μg/ml poly-L-lysine in Neurobasal medium. 15 minutes after plating, Aβ25-35 was added to a final concentration of 20 μM. The Aβ25-35 had prior to plating been dissolved in sterile deionized water to a concentration of 3 mM and incubated at 37° C. for four days according to Pigino et al. (2001) J. Neurosci. 21:834-42. This treatment induces fibrillation of the Aβ-peptide fragment, thereby increasing its neurotoxic activity. The neurons were incubated with Neurobasal medium containing the FGL peptide for 70 hours, fixed with 4% (v/v) formaldehyde, and stained with Hoechst 33258 for 25 minutes as described by Kruman et al. (1997). Images of 1000-1500 neurons were randomly recorded for each group in each experiment using computer assisted fluorescence microscopy as described for the hippocampal neurite outgrowth assay. Nuclei from dead and live neurons were counted using the software package Prima developed at the Protein Laborator, Copenhagen University, and the fraction of live neurons relative to the total number of neurons was estimated.

11-amino acids fragment of the sequence set forth in SEQ ID NO: 5: SEQ ID NO: 5 (VAENSRGKNVAKG) with two amino acids truncated from the C-terminus; from axonal-associated cell adhesion molecule (Axonal-associated cell adhesion molecule [NCBI: NP_446331]: FGFR binding motif)
maximal effect, increase in neurite length of rat hippocampal neurons (hippocampal neurons [1]): 500%

O=c1cc(N2CCOCC2)oc2c(-c3ccccc3)cccc12 [LY294002]
FGLd-induced neurite outgrowth (% of FGLd-treated control) at 3.5 µM ([2]; 3.5 μM inhibitor): 90% | FGLd-induced neurite outgrowth (% of FGLd-treated control) at 10 µM ([2]; 10 μM inhibitor): ~50%

EVYVVAENMGKSKA [FGLc]
PI staining (cell damage) after 10 minutes of OGD [3]: did not affect cell damage induced by OGD

EVYVVAENQQGKSKA (NCAM Fn III, 2 [Swiss-Prot: P13591]: FGFR binding motif) [FGLm]
Effect on Neurite Length (Percent Increase vs. Control) (dopaminergic neurons [4]; 10 μg/mL): 15% | Effect on Neurite Length (Percent Increase vs. Control) (dopaminergic neurons [4]; 50 μg/mL): 23% | Effect on Neurite Length (Percent Increase vs. Control) (dopaminergic neurons [4]; 250 μg/mL): 28% | Neuronal Survival (% of Control) ([5]; CGN (PND 3-4), 250 μg/mL): 125%* % of Control | Neuronal Survival (% of Control) ([5]; CGN (PND 7-8), 10 μg/mL): 110%* % of Control | Neuronal Survival (% of Control) ([5]; CGN (PND 7-8), 50 μg/mL): 119%* % of Control | Neuronal Survival (% of Control) ([5]; CGN (PND 7-8), 250 μg/mL): 142%* % of Control

IGF-1: insulin-like growth factor 1
rescue of CGN from low KCl-induced cell death ([5]; 50 ng/ml, 5 mM KCl): could be rescued

B1: GDNF: glia derived neurotrophic factor (protein, UniProt P39905 78-211, looked up)
Glial cell line-derived …: SPDKQMAVLPRRERNRQAAAANPENSRGKGRRGQRGKNRGCVLTAIHLNVTDLGLGYETKEELIFRYCSGSCDAAETTYDKILKNLSRNRRLVSDKVGQACCRPIAFDDDLSFLDDNLVYHILRKHSAKRCGCI
survival of dopaminergic neurons treated with 6-OHDA (dopaminergic neurons [6]): 150%

B2: BDNF: brain derived neurotrophic factor (protein, UniProt P23560 19-247, looked up)
Neurotrophic factor BDNF …: APMKEANIRGQGGLAYPGVRTHGTLESVNGPKAGSRGLTSLADTFEHVIEELLDEDQKVRPNEENNKDADLYTSRVMLSSQVPLEPPLLFLLEEYKNYLDAANMSMRVRRHSDPARRGELSVCDSISEWVTAADKKTAVDMSGGTVTVLEKVPVSKGQLKQYFYETKCNPMGYTKEGCRGIDKRHWNSQCRTTQSYVRALTMDSKKRIGWRFIRIDTSCVCTLTIKRGR
rescue of hippocampal neurons from Aβ25-35-induced cell loss (hippocampal neurons [7]): could in part be rescued
